Measured values reported in US20260167620A1, “MULTIFUNCTIONAL COMPOUND CAPABLE OF DEGRADING BTK KINASE, AND COMPOSITION AND USE” (HANGZHOU HEALZEN THERAPEUTICS CO., LTD., priority 2021, published 2026).
pIC50: −log10 of the molar value.

Experiments:
Format in all cases: cell-based
[1] = test system: OCI-LY10 cells; experiment: Inhibitory activity on OCI-LY10 cell proliferation (MTS); conditions: Homo sapiens, 72 h or 168 h
Experimental: (§1) The anti-tumor efficacy of the compounds was tested by measuring their inhibitory effects on OCI-LY10 and Mino cell proliferation. OCI-LY10 and Mino cells were cultured in RPM-1640 medium containing […] fetal calf serum. OCI-LY10 and Mino cells were digested, inoculated in a 96-well plate at a cell concentration of 10000 cells/well, and incubated overnight at 37° C., 5% CO2. Compounds of different concentrations (1000 nM, 4-fold dilution, 8 points) were added to the 96-well plate and incubated for 72 h or 168 h at 37° C. and […], and then 20 μL of MTS was added to each well. After incubation for 2 h, 25 μl of 10% SDS was added to each well to terminate the reaction. The absorbance at 490 nm and 650 nm were measured with a microplate reader. IC50 was calculated using GraphPad Prism 5.0.

[2] = target: T1, BTK (Homo sapiens, UniProt Q06187); experiment: BTK degradation activity test in Mino cells (Westernblot or Elisa); conditions: 24-72 h incubation
T1 construct: endogenous in cells; host or cells: Mino cells
T1 sequence (Q06187 whole entry): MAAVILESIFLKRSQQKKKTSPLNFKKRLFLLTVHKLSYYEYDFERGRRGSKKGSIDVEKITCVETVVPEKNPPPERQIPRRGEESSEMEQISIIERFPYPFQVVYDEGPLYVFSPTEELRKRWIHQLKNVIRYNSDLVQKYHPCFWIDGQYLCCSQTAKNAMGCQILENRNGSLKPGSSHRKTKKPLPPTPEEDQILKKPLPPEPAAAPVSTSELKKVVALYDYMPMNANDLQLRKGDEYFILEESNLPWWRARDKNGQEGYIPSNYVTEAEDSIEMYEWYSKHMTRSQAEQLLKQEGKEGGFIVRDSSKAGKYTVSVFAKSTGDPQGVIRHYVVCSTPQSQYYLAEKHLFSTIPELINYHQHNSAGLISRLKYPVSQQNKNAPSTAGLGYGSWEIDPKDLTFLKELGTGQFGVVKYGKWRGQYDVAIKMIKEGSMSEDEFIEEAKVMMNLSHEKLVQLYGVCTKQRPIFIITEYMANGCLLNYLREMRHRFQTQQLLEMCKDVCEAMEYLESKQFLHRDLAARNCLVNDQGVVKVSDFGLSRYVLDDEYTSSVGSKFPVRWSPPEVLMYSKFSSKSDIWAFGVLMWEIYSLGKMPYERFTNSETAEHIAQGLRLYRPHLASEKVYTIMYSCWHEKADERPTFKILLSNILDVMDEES
Experimental: The Mino cell line cells are 0.5˜1 million/well in 6-well plates. The compounds are diluted to different concentrations, added to the plate, and after 24-72 h of incubation, the cells are collected. After the cells were lysed, the total protein concentration in each well was determined with a BCA kit. The amount of BTK is determined using the Westernblot or Elisa method.

[3] = test system: Mino cells; experiment: Inhibitory activity on Mino cell proliferation (MTS); conditions: Homo sapiens, 72 h or 168 h
Experimental: as §1

Row | SMILES | pIC50 [1] | DC50 [2] | pIC50 [3]
1 | NC(=O)c1nnc(N2CCCCC2)nc1Nc1ccc(N2CCN(CC3CCN(c4ccc(N5CCC(=O)NC5=O)c(F)c4)CC3)CC2)c(F)c1 [Compound 078, 5-((4-(4-((1-(4-(2,4-dioxotetrahydropyrimidin-1(2H)-yl)-3-fluorophenyl)piperidin-4-yl)methyl)piperazin-1-yl)-3-fluorophenyl)amino)-3-(piperidin-1-yl)-1,2,4-triazine-6-carboxamide] | 9.15 | < 10 nM | –
2 | NC(=O)c1nnc(N2CCCCC2)nc1Nc1ccc(N2CCC(CN3CCN(c4ccc(N5CCC(=O)NC5=O)cc4)CC3)CC2)nc1 [Compound 048, 5-((6-(4-((4-(4-(2,4-dioxotetrahydropyrimidin-1(2H)-yl)phenyl)piperazin-1-yl)methyl)piperidin-1-yl)pyridin-3-yl)amino)-3-(piperidin-1-yl)-1,2,4-triazine-6-carboxamide] | 9.21 | < 10 nM | –
3 | NC(=O)c1nnc(N2CCCCC2)nc1Nc1ccc(N2CCC(CN3CCN(c4ccc(N5CCC(=O)NC5=O)cc4)CC3)CC2)c(F)c1 [Compound 050, 5-((4-(4-((4-(4-(2,4-dioxotetrahydropyrimidin-1(2H)-yl)phenyl)piperazin-1-yl)methyl)piperidin-1-yl)-3-fluorophenyl)amino)-3-(piperidin-1-yl)-1,2,4-triazine-6-carboxamide] | – | < 10 nM | 8.22
4 | NC(=O)c1nnc(N2CCCCC2)nc1Nc1ccc(C2CCN(CC3CCN(c4ccc5c(c4)CCN(C4CCC(=O)NC4=O)C5=O)C3)CC2)cc1 (centres unmarked) [Compound 013, 5-((4-(1-((1-(2-(2,6-dioxopiperidin-3-yl)-1-oxo-1,2,3,4-tetrahydroisoquinolin-6-yl)pyrrolidin-3-yl)methyl)piperidin-4-yl)phenyl)amino)-3-(piperidin-1-yl)-1,2,4-triazine-6-carboxamide] | – | < 10 nM | 8.47
5 | NC(=O)c1nnc(N2CCCCC2)nc1Nc1ccc(N2CCN(CC3CCN(c4ccc(-c5ccc(=O)[nH]n5)cc4C(F)(F)F)CC3)CC2)c(F)c1 [Compound 087, 5-((3-fluoro-4-(4-((1-(4-(6-oxo-1,6-dihydropyridazin-3-yl)-2-(trifluoromethyl)phenyl)piperidin-4-yl)methyl)piperazin-1-yl)phenyl)amino)-3-(piperidin-1-yl)-1,2,4-triazine-6-carboxamide] | – | < 10 nM | 8.37
6 | NC(=O)c1nnc(N2CCCCC2)nc1Nc1ccc(N2CCN(CC3CCN(c4ccc(C(=O)NC5CCC(=O)NC5=O)c(F)c4)CC3)CC2)c(F)c1 (centres unmarked) [Compound 083, 5-((4-(4-((1-(4-((2,6-dioxopiperidin-3-yl)carbamoyl)-3-fluorophenyl)piperidin-4-yl)methyl)piperazin-1-yl)-3-fluorophenyl)amino)-3-(piperidin-1-yl)-1,2,4-triazine-6-carboxamide] | 8.91 | < 10 nM | –
7 | NC(=O)c1nnc(N2CCCCC2)nc1Nc1ccc(N2CCN(CC3CCN(c4ccc(NC5CCC(=O)NC5=O)c(F)c4)CC3)CC2)c(F)c1 (centres unmarked) [Compound 088, 5-((4-(4-((1-(4-((2,6-dioxopiperidin-3-yl)amino)-3-fluorophenyl)piperidin-4-yl)methyl)piperazin-1-yl)-3-fluorophenyl)amino)-3-(piperidin-1-yl)-1,2,4-triazine-6-carboxamide] | 9.18 | < 10 nM | –
8 | Cc1cc(N2CCN(CC3CCN(c4ccc(Nc5nc(N6CCCCC6)nnc5C(N)=O)cc4F)CC3)CC2)ccc1N1CCC(=O)NC1=O [Compound 076, 5-((4-(4-((4-(4-(2,4-dioxotetrahydropyrimidin-1(2H)-yl)-3-methylphenyl)piperazin-1-yl)methyl)piperidin-1-yl)-3-fluorophenyl)amino)-3-(piperidin-1-yl)-1,2,4-triazine-6-carboxamide] | 8.96 | < 10 nM | –
9 | Cn1c(=O)n(C2CCC(=O)NC2=O)c2ccc(N3CCC(CN4CCC(c5ccc(Nc6nc(N7CCCCC7)nnc6C(N)=O)cc5)CC4)C3)cc21 (centres unmarked) [Compound 011, 5-((4-(1-((1-(1-(2,6-dioxopiperidin-3-yl)-3-methyl-2-oxo-2,3-dihydro-1H-benzo[d]imidazol-5-yl)pyrrolidin-3-yl)methyl)piperidin-4-yl)phenyl)amino)-3-(piperidin-1-yl)-1,2,4-triazine-6-carboxamide] | – | < 10 nM | 8.38
10 | NC(=O)c1nnc(N2CCCCC2)nc1Nc1ccc(C2CCN(CC3CCN(c4ccc5c(=O)n(C6CCC(=O)NC6=O)ccc5c4)C3)CC2)cc1 (centres unmarked) [Compound 012, 5-((4-(1-((1-(2-(2,6-dioxopiperidin-3-yl)-1-oxo-1,2-dihydroisoquinolin-6-yl)pyrrolidin-3-yl)methyl)piperidin-4-yl)phenyl)amino)-3-(piperidin-1-yl)-1,2,4-triazine-6-carboxamide] | – | < 10 nM | 8.91
11 | NC(=O)c1nnc(N2CCCCC2)nc1Nc1ccc(N2CCN(CC3CCN(c4ccc(N5CCC(=O)NC5=O)cc4F)CC3)CC2)c(F)c1 [Compound 086, 5-((4-(4-((1-(4-(2,4-dioxotetrahydropyrimidin-1(2H)-yl)-2-fluorophenyl)piperidin-4-yl)methyl)piperazin-1-yl)-3-fluorophenyl)amino)-3-(piperidin-1-yl)-1,2,4-triazine-6-carboxamide] | 9.15 | < 10 nM | –
12 | NC(=O)c1nnc(N2CCCCC2)nc1Nc1ccc(N2CCC(CN3CCN(c4ccc(C5CCC(=O)NC5=O)cn4)CC3)CC2)c(F)c1 (centres unmarked) [Compound 053, 5-((4-(4-((4-(5-(2,6-dioxopiperidin-3-yl)pyridin-2-yl)piperazin-1-yl)methyl)piperidin-1-yl)-3-fluorophenyl)amino)-3-(piperidin-1-yl)-1,2,4-triazine-6-carboxamide] | 8.76 | < 10 nM | –
13 | Cc1cc(N2CCC(=O)NC2=O)ccc1N1CCC(CN2CCN(c3ccc(Nc4nc(N5CCCCC5)nnc4C(N)=O)cc3F)CC2)CC1 [Compound 084, 5-((4-(4-((1-(4-(2,4-dioxotetrahydropyrimidin-1(2H)-yl)-2-methylphenyl)piperidin-4-yl)methyl)piperazin-1-yl)-3-fluorophenyl)amino)-3-(piperidin-1-yl)-1,2,4-triazine-6-carboxamide] | – | < 10 nM | 8.48
14 | Cc1cc(N2CCC(CN3CCN(c4ccc(Nc5nc(N6CCOCC6)nnc5C(N)=O)cc4F)CC3)CC2)ccc1N1CCC(=O)NC1=O [Compound 098, 5-((4-(4-((1-(4-(2,4-dioxotetrahydropyrimidin-1(2H)-yl)-3-methylphenyl)piperidin-4-yl)methyl)piperazin-1-yl)-3-fluorophenyl)amino)-3-morpholino-1,2,4-triazine-6-carboxamide] | – | < 10 nM | 8.51
15 | CC(OC(=O)C(C)(C)C)N1C(=O)CCC(N2C(=O)c3ccc(N4CCC(CN5CCC(c6ccc(Nc7nc(N8CCCCC8)nnc7C(N)=O)cc6)CC5)C4)cc3C2=O)C1=O (centres unmarked) [Compound 069, 1-(3-(5-(3-((4-(4-((6-carbamoyl-3-(piperidin-1-yl)-1,2,4-triazin-5-yl)amino)phenyl)piperidin-1-yl)methyl)pyrrolidin-1-yl)-1,3-dioxoisoindolin-2-yl)-2,6-dioxopiperidin-1-yl) ethyl pivalate] | – | < 10 nM | –
16 | NC(=O)c1nnc(N2CCC[C@@H](N)C2)nc1Nc1ccc(C2CCN(CC3CCN(c4ccc5c(c4)C(=O)N(C4CCC(=O)NC4=O)C5=O)C3)CC2)cc1 (stereo partly drawn) [Compound 029, 3-((R)-3-aminopiperidin-1-yl)-5-((4-(1-((1-(2-(2,6-dioxopiperidin-3-yl)-1,3-dioxoisoindolin-5-yl)pyrrolidin-3-yl)methyl)piperidin-4-yl)phenyl)amino)-1,2,4-triazine-6-carboxamide] | – | < 10 nM | –
17 | NC(=O)c1nnc(N2CCCCC2)nc1Nc1ccc(C2CCN(CC3CCN(c4ccc5c(c4)CN(C4CCC(=O)NC4=O)C5=O)C3)CC2)cc1 (centres unmarked) [Compound 009, 5-((4-(1-((1-(2-(2,6-dioxopiperidin-3-yl)-1-oxoisoindolin-5-yl)pyrrolidin-3-yl)methyl)piperidin-4-yl)phenyl)amino)-3-(piperidin-1-yl)-1,2,4-triazine-6-carboxamide] | – | < 10 nM | –
18 | NC(=O)c1cnc(N2CCCCC2)cc1Nc1ccc(N2CCN(CC3CCN(c4ccc5c(c4)C(=O)N(C4CCC(=O)NC4=O)C5=O)C3)CC2)c(F)c1 (centres unmarked) [Compound 037, 4-((4-(4-((1-(2-(2,6-dioxopiperidin-3-yl)-1,3-dioxoisoindolin-5-yl)pyrrolidin-3-yl)methyl)piperazin-1-yl)-3-fluorophenyl)amino)-6-(piperidin-1-yl) nicotinamide] | – | < 10 nM | –
19 | NC(=O)c1nnc(N2CCCCC2)nc1Nc1ccc(N2CCC(C(=O)N3CCN(c4ccc5c(c4)C(=O)N(C4CCC(=O)NC4=O)C5=O)CC3)CC2)cc1 (centres unmarked) [Compound 060, 5-((4-(4-(4-(2-(2,6-dioxopiperidin-3-yl)-1,3-dioxoisoindolin-5-yl)piperazine-1-carbonyl)piperidin-1-yl)phenyl)amino)-3-(piperidin-1-yl)-1,2,4-triazine-6-carboxamide] | – | < 10 nM | –
20 | NC(=O)c1cnc(N2CCCCC2)nc1Nc1ccc(C2CCN(CC3CCN(c4ccc5c(c4)C(=O)N(C4CCC(=O)NC4=O)C5=O)C3)CC2)cc1 (centres unmarked) [Compound 033, 4-((4-(1-((1-(2-(2,6-dioxopiperidin-3-yl)-1,3-dioxoisoindolin-5-yl)pyrrolidin-3-yl)methyl)piperidin-4-yl)phenyl)amino)-2-(piperidin-1-yl) pyrimidine-5-carboxamide] | – | < 10 nM | 8.04
